Assay results published in patent US9539303B2, “Treatment of Ras-expressing tumors” (Celgene Corporation, priority 2006, dated 2017).
Where “and” joins values, the source holds several entries; their conditions need not be identical. Identical values can stand only once.

Legend:
B-Raf 600E cells = assay: 4-day proliferation assay, B-Raf 600E NIH-3T3 cells; assay type: cell-based, mouse; conditions: 2, 3, or 4 nM romidepsin
Method: A series of transformed NIH-3T3 cell likes were generated and a proliferation assay was performed in the presence of 2, 3, or 4 nM romidepsin. FIG. 23 illustrates the transformed morphology of the cells. FIG. 24 presents graphs of cell proliferation.

[1] = system: BxPC-3 human pancreatic tumor xenograft; assay: BxPC-3 human pancreatic tumor xenograft tumor growth inhibition study (Example 3); assay type: in vivo, female nude mice (nu/nu); conditions: for % TGI / Final tumor volume mean ± SEM: Day 29
From the text: (Madison, Wis.). […] Tumor measurements were converted to cubic millimeter tumor volume using the formula^(5): […] TGI values for each treatment group are reported at study completion; these calculations are based on the final study day. […] Individual mice lacking palpable tumors were classified as undergoing complete regression (CR). Animals experiencing partial or complete tumor regressions were censored from TGI calculations. However, data from these animals was included in statistical analysis calculations. In addition, weight data from these animals was included in daily and final group calculations. Tumor Necrosis-Degree of tumor necrosis was rated at each tumor measurement using the following arbitrary index: […]

[2] = BxPC-3 study, FK228 2.5 mg/kg IV Q4Dx3
[3] = BxPC-3 study, FK228 2.5 mg/kg IV Q4Dx3, 2.5 mg/kg
[4] = BxPC-3 study, FK228 5 mg/kg IV Q4Dx3
[5] = BxPC-3 study, FK228 5 mg/kg IV Q4Dx3, 5 mg/kg

## C/C=C1\NC(=O)[C@H]2CSSCC/C=C/[C@H](CC(=O)N[C@H](C(C)C)C(=O)N2)OC(=O)[C@H](C(C)C)NC1=O [FK228, romidepsin]
B-Raf 600E cells
  potency on proliferation: not potent
[1]; [2]
  % TGI: No TGI
  Activity according to NCI standards: inactive
  Tumor necrosis: 2/9 animals reported mild tumor necrosis
[1]; [3]
  Final tumor volume mean ± SEM: 2440±643 mm^3
  #PR/CR: 0/9 and 0/0
[1]; [4]
  % TGI: No TGI
  Activity according to NCI standards: inactive
  Tumor necrosis: 2/9 animals reported mild tumor necrosis
[1]; [5]
  Final tumor volume mean ± SEM: 2620±238 mm^3
  #PR/CR: 0/9 and 0/0
[1]; BxPC-3 study, at the evaluated doses and schedules
  calculated TGI values: No tumor growth inhibition
[1]; wildtype ras BxPC-3, all evaluated doses
  antitumor activity (overall conclusion): inactive
